Measured values taken from PubChem BioAssay AID248 (DTP/NCI, 2004).
Toxic doses and inconclusive results are not listed. Rule as the data show it: active = T/C of 150% or more; inactive = T/C below 125%. Square brackets hold non-standard residues; d marks the D form. Peptide text beside a SMILES is read from it. ξ: configuration not given here. ξF = NC(Cc1ccccc1)C(=O)O

Tested on: L1210 leukemia ip in BDF1 mice, survival T/C
Assay: NCI In Vivo Anticancer Drug Screen. Data for tumor model L1210 Leukemia (intraperitoneal) in B6D2F1 (BDF1) mice
Conditions: endpoint: mean survival time, higher = longer survival
Method in brief: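 Each compound was tested against a transplantable tumor grown in mice. The endpoint was survival, with treated animals benchmarked against vehicle controls as a simple ratio.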

[1] = dose: 100.0 mg/kg/injection, schedule: Q01DX001 (ip), vehicle: saline
[2] = dose: 200.0 mg/kg/injection, schedule: Q01DX001 (ip), vehicle: saline
[3] = dose: 400.0 mg/kg/injection, schedule: Q01DX001 (ip), vehicle: saline
[4] = dose: 100.0 mg/kg/injection, schedule: Q04DX003 (ip), vehicle: saline with Tween-80
[5] = dose: 200.0 mg/kg/injection, schedule: Q04DX003 (ip), vehicle: saline with Tween-80
[6] = dose: 400.0 mg/kg/injection, schedule: Q04DX003 (ip), vehicle: saline with Tween-80

Measured: T/C

C(=C\c1ccccn1)/c1ccccc1
inactive: dose: 100.0 mg/kg/injection, schedule: Q04DX003 (ip), vehicle: Klucel (hydroxypropylcellulose) (HPC) 100 % of control | dose: 200.0 mg/kg/injection, schedule: Q04DX003 (ip), vehicle: Klucel (hydroxypropylcellulose) (HPC) 94 % of control | dose: 400.0 mg/kg/injection, schedule: Q04DX003 (ip), vehicle: Klucel (hydroxypropylcellulose) (HPC) 103 % of control

Cc1ncccc1CCO
inactive: [1] 96 % of control | [2] 100 % of control | [3] 102 % of control

O=C(CCCCCCCCCCBr)OCc1ccccc1
inactive: dose: 100.0 mg/kg/injection, schedule: Q01DX001 (ip), vehicle: saline sonified 103 % of control | dose: 200.0 mg/kg/injection, schedule: Q01DX001 (ip), vehicle: saline sonified 99 % of control | dose: 400.0 mg/kg/injection, schedule: Q01DX001 (ip), vehicle: saline sonified 105 % of control

NCC(=O)NC(Cc1ccccc1)C(=O)O (stereo unspecified) (H-Gly-[ξF]-OH)
inactive: dose: 50.0 mg/kg/injection, schedule: Q01DX001 (ip), vehicle: saline 110 % of control | [1] 96 % of control | [2] 112 % of control | [3] 107 % of control

NC(=O)c1cn(C2OC(CO)C(O)C2O)c2ncn3ccnc3c12 (stereo unspecified)
inactive: dose: 6.25 mg/kg/injection, schedule: Q01DX005 (ip), vehicle: saline 101 % of control | dose: 12.5 mg/kg/injection, schedule: Q01DX005 (ip), vehicle: saline 106 % of control

c1cc(N2CCOCC2)cc(NC2CCCCC2)n1
inactive: dose: 5.0 mg/kg/injection, schedule: Q01DX001 (ip), vehicle: saline 95 % of control | dose: 10.0 mg/kg/injection, schedule: Q01DX001 (ip), vehicle: saline 104 % of control | dose: 20.0 mg/kg/injection, schedule: Q01DX001 (ip), vehicle: saline 97 % of control | dose: 40.0 mg/kg/injection, schedule: Q01DX001 (ip), vehicle: saline 103 % of control | dose: 80.0 mg/kg/injection, schedule: Q01DX001 (ip), vehicle: saline 98 % of control

CN(C)c1ccc(C=O)c(F)c1
inactive: dose: 100.0 mg/kg/injection, schedule: Q01DX009 (ip), vehicle: Klucel (hydroxypropylcellulose) (HPC) 96 % of control | dose: 200.0 mg/kg/injection, schedule: Q01DX009 (ip), vehicle: Klucel (hydroxypropylcellulose) (HPC) 100 % of control | dose: 400.0 mg/kg/injection, schedule: Q01DX009 (ip), vehicle: Klucel (hydroxypropylcellulose) (HPC) 110 % of control

CCOC(=O)C(C(C)=O)C(c1ccc(N(C)C)cc1)C(C(C)=O)C(=O)OCC (stereo unspecified)
inactive: dose: 25.6 mg/kg/injection, schedule: Q04DX002 (ip), vehicle: saline with Tween-80 97 % of control | dose: 64.0 mg/kg/injection, schedule: Q04DX002 (ip), vehicle: saline with Tween-80 93 % of control | [4] 89 % of control | dose: 160.0 mg/kg/injection, schedule: Q04DX002 (ip), vehicle: saline with Tween-80 93 % of control | [5] 92 % of control | dose: 400.0 mg/kg/injection, schedule: Q04DX002 (ip), vehicle: saline with Tween-80 89 % of control | [6] 95 % of control

COc1cc(/C=C\C(=O)O)cc(Cl)c1O
inactive: dose: 50.0 mg/kg/injection, schedule: Q01DX009 (ip), vehicle: saline + alcohol 94 % of control | dose: 100.0 mg/kg/injection, schedule: Q01DX009 (ip), vehicle: saline + alcohol 101 % of control | dose: 200.0 mg/kg/injection, schedule: Q01DX009 (ip), vehicle: saline + alcohol 105 % of control

O=S1(=O)CCCN1c1ccccn1
inactive: dose: 100.0 mg/kg/injection, schedule: Q04DX002 (ip), vehicle: other 104 % of control | dose: 200.0 mg/kg/injection, schedule: Q04DX002 (ip), vehicle: other 89 % of control | dose: 400.0 mg/kg/injection, schedule: Q04DX002 (ip), vehicle: other 96 % of control

CCN1c2ccccc2Sc2ccccc21
inactive: dose: 50.0 mg/kg/injection, schedule: Q01DX001 (ip), vehicle: carboxymethylcellulose (CMC) 98 % of control | dose: 100.0 mg/kg/injection, schedule: Q01DX001 (ip), vehicle: carboxymethylcellulose (CMC) 98 % of control | [4] 92 % of control | dose: 200.0 mg/kg/injection, schedule: Q01DX001 (ip), vehicle: carboxymethylcellulose (CMC) 102 % of control | [5] 97 % of control | dose: 400.0 mg/kg/injection, schedule: Q01DX001 (ip), vehicle: carboxymethylcellulose (CMC) 98 % of control | [6] 100 % of control

CCOc1ccccc1-c1nc2ccccc2s1
inactive: dose: 100.0 mg/kg/injection, schedule: Q04DX003 (ip), vehicle: DMSO 89 % of control | dose: 200.0 mg/kg/injection, schedule: Q04DX003 (ip), vehicle: DMSO 89 % of control | dose: 400.0 mg/kg/injection, schedule: Q04DX003 (ip), vehicle: DMSO 103 % of control
